Like-named read-outs stand apart in the source and are kept apart here.
Experiments:
[1] = system: PDK1 kinase activity (phospho-T308-PKB) in PC3 cells; assay: Cellular testing of PDK1 kinase inhibitors in PC3 cells (Luminex, phospho-T308-PKB); type: cell-based; conditions: 30 min incubation, serum-free, read-out: IC50 PC3 cells [P-PKB T308]
Method: Method for the Cellular Testing of PDK1 Kinase Inhibitors in PC3 Cells.
The cellular assay for the determination of the PDK1 kinase activity is carried out as a Luminex assay in the 96-well format. PC3 cells are shown at 20,000 cells per well in 100 μl of medium (45% of […]/45% of Ham's F12/10% of FCS) and incubated on the following day for 30 min with a serial dilution of the test substance (7 concentrations) under serum-free conditions. The cells are subsequently lysed using 90 μl of lysis buffer (20 mM tris/HCl pH 8.0, 150 mM NaCl, 1% of NP40, 10% of glycerol, 1% of phosphatase inhibitor I, 1% of phosphatase inhibitor II, 0.1% of protease inhibitor cocktail III, 0.01% of benzonase) per well, and the lysates are separated off from insoluble cell constituents by means of centrifugation through a 96-well filter plate (0.65 μm). The lysates are incubated overnight at 4° C. with shaking with Luminex beads to which an anti-total PKB antibody is coupled. The detection is carried out on the following day by addition of a phospho-T308-PKB antibody and a species-specific peroxidase-labelled secondary antibody. The detection of phospho-T308-PKB is carried out by measurement in a Luminex100 instrument by determination of 100 events per cavity in a measurement time of 60 sec. As pharmacological blank, the signals obtained from cells which have been treated with 10 μM staurosporin are subtracted from all other batches. The control value used for maximum phosphorylation of PKB on T308 are the signals from cells which have only been treated with the solvent (0.3% of DMSO). The values of the batches treated with test substance are calculated therefrom as percentage of control, and IC50 values are determined by means of RS1.

PDK1 = target: T1, PDK1 (Homo sapiens, UniProt O15530); assay: Test for the inhibition of PDK1 (flashplate, 33P-ATP); type: biochemical; conditions: His6-PDK1 3.4 nM, 4 μM ATP, 30° C., 60 min
T1 construct: His6 (N)
T1 sequence (O15530 51-556 limits assumed): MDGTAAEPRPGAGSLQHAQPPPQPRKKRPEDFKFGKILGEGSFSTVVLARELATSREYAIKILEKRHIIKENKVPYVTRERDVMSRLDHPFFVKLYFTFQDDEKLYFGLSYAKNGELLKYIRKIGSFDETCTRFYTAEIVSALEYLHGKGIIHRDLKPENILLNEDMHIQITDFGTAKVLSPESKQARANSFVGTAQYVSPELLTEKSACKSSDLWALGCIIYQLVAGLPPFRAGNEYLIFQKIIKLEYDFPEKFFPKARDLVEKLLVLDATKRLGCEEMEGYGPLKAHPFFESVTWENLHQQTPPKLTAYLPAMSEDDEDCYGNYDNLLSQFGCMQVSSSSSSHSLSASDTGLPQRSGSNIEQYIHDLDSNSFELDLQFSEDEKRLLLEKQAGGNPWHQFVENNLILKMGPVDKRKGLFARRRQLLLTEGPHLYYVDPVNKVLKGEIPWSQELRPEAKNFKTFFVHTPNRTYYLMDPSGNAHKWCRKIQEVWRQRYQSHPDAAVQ
Outline: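 His6-PDK1(1-50) (3.4 nM) and a biotinylated peptide substrate (400 nM) were incubated 60 min at 30° C with 4 μM ATP containing ^33P-ATP and test compound. Incorporated radioactivity was counted after subtracting a 100 nM staurosporine blank and expressed as % of control; IC50 derived from these.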

IC50 ([1]; Homo sapiens, PC-3, 0.5 h) [nM]	IC50 (PDK1) [nM]	IC50 [1] [nM]	SMILES
14	28	–	Cn1cc(-c2cnc3[nH]cc(-c4cc([C@@](C)(O)c5cccc(Cl)c5F)nc(N)n4)c3c2)cn1 (single isomer, unassigned) [A137]
2	66	–	CC[C@@](O)(c1cc(-c2c[nH]c3ncc(-c4cnn(C)c4)cc23)nc(N)n1)c1cccc(F)c1F (single isomer, unassigned) [A126]
140	32	–	CC[C@@](O)(c1cc(-c2c[nH]c3ncc(-c4cnn(C)c4)cc23)nc(N)n1)c1ccncc1F (single isomer, unassigned) [A132]
14	39	–	CC(C)n1cc(-c2cnc3[nH]cc(-c4cc(C(C)(O)c5cccc(F)c5F)nc(N)n4)c3c2)cn1 (centres unmarked) [A114, 1-{2-amino-6-[5-(1-isopropyl-1H-pyrazol-4-yl)-1H-pyrrolo[2,3-b]pyridin-3-yl]-pyrimidin-4-yl}-1-(2,3-difluorophenyl)ethanol]
18	71	–	CCC[C@](O)(c1cc(-c2c[nH]c3ncc(-c4cnn(C)c4)cc23)nc(N)n1)c1ccccc1F (single isomer, unassigned) [A130]
7	16	–	CCC[C@@](O)(c1cc(-c2c[nH]c3ncc(-c4cnn(C)c4)cc23)nc(N)n1)c1ccccc1F (single isomer, unassigned) [A129]
110	56	–	CC(C)C(O)(c1cccc(F)c1)c1cc(-c2c[nH]c3ncc(-c4cnn(C)c4)cc23)nc(N)n1 (centres unmarked) [A115, 1-{2-amino-6-[5-(1-methyl-1H-pyrazol-4-yl)-1H-pyrrolo[2,3-b]pyridin-3-yl]-pyrimidin-4-yl}-1-(3-fluorophenyl)-2-methylpropan-1-ol]
18	71	–	CC[C@](O)(c1ccc(F)cc1)c1cc(-c2c[nH]c3ncc(-c4cnn(C)c4)cc23)nc(N)n1 (single isomer, unassigned) [A122]
14	7.9	–	CC[C@](O)(c1cc(-c2c[nH]c3ncc(-c4cnn(C)c4)cc23)nc(N)n1)c1cccc(F)c1F (single isomer, unassigned) [A125]
61	10	–	Cn1cc(-c2cnc3[nH]cc(-c4cc(C(C)(O)c5ccccc5F)nc(N)n4)c3c2)cn1 (single isomer, unassigned) [A103, 1-{2-amino-6-[5-(1-methyl-1H-pyrazol-4-yl)-1H-pyrrolo[2,3-b]pyridin-3-yl]-pyrimidin-4-yl}-1-(2-fluorophenyl)ethanol]
110	13	–	Cn1cc(-c2cnc3[nH]cc(-c4cc(C(C)(O)c5cccc(F)c5)nc(N)n4)c3c2)cn1 (centres unmarked) [A105, 1-{2-amino-6-[5-(1-methyl-1H-pyrazol-4-yl)-1H-pyrrolo[2,3-b]pyridin-3-yl]-pyrimidin-4-yl}-1-(3-fluorophenyl)ethanol]
11	3.8	–	CC[C@](O)(c1cc(-c2c[nH]c3ncc(-c4cnn(C)c4)cc23)nc(N)n1)c1ccncc1F (single isomer, unassigned) [A131]

Continued, molecule first:

SMILES	IC50 ([1]; Homo sapiens, PC-3, 0.5 h) [nM]	IC50 (PDK1) [nM]	IC50 [1] [nM]
Cn1cc(-c2cnc3[nH]cc(-c4cc(C(C)(O)c5ccncn5)nc(N)n4)c3c2)cn1 (centres unmarked) [A113, 1-{2-amino-6-[5-(1-methyl-1H-pyrazol-4-yl)-1H-pyrrolo[2,3-b]pyridin-3-yl]-pyrimidin-4-yl}-1-pyrimidin-4-ylethanol]	7300	31	–
Cn1cc(-c2cnc3[nH]cc(-c4cc(C(O)(c5ccccc5)C(F)(F)F)nc(N)n4)c3c2)cn1 (centres unmarked) [A69, 1-{2-amino-6-[5-(1-methyl-1H-pyrazol-4-yl)-1H-pyrrolo[2,3-b]pyridin-3-yl]-pyrimidin-4-yl}-2,2,2-trifluoro-1-phenylethanol]	240	150	–
Cn1cc(-c2cnc3[nH]cc(-c4cc(C(C)(O)c5ccncc5)nc(N)n4)c3c2)cn1 (single isomer, unassigned) [A42, 1-{2-amino-6-[5-(1-methyl-1H-pyrazol-4-yl)-1H-pyrrolo[2,3-b]pyridin-3-yl]-pyrimidin-4-yl}-1-pyridin-4-ylethanol]	–	3.2	950
CC(C)[C@](O)(c1ccccc1)c1cc(-c2c[nH]c3ncc(-c4cnn(C)c4)cc23)nc(N)n1 (single isomer, unassigned) [A128]	470	260	–
Cn1cc(-c2cnc3[nH]cc(-c4cc([C@](O)(c5ccccc5)C(F)(F)F)nc(N)n4)c3c2)cn1 (single isomer, unassigned) [A124]	48	170	–
CC(O)(c1cccc(F)c1)c1cc(-c2c[nH]c3ncc(-c4cnn(C(C)(C)C)c4)cc23)nc(N)n1 (centres unmarked) [A120, 1-{2-amino-6-[5-(1-tert-butyl-1H-pyrazol-4-yl)-1H-pyrrolo[2,3-b]pyridin-3-yl]-pyrimidin-4-yl}-1-(3-fluorophenyl)ethanol]	1100	250	–
CCCC(O)(c1ccncc1)c1cc(-c2c[nH]c3ncc(-c4cnn(C)c4)cc23)nc(N)n1 (centres unmarked) [A35, 1-{2-amino-6-[5-(1-methyl-1H-pyrazol-4-yl)-1H-pyrrolo[2,3-b]pyridin-3-yl]-pyrimidin-4-yl}-1-pyridin-4-ylbutan-1-ol]	210	3	–
COc1ccc(C(C)(O)c2cc(-c3c[nH]c4ncc(-c5cnn(C)c5)cc34)nc(N)n2)cn1 (centres unmarked) [A112, 1-{2-amino-6-[5-(1-methyl-1H-pyrazol-4-yl)-1H-pyrrolo[2,3-b]pyridin-3-yl]-pyrimidin-4-yl}-1-(6-methoxypyridin-3-yl)ethanol]	1300	120	–
COCO[C@@](C)(c1ccncc1)c1cc(-c2c[nH]c3ncc(Br)cc23)nc(N)n1 (single isomer, unassigned) [A140]	8900	220	–
COCOC(C)(c1cc(-c2c[nH]c3ncc(-c4cnn(C)c4)cc23)nc(N)n1)c1ccccc1F (centres unmarked) [A119, 4-[1-(2-fluorophenyl)-1-methoxymethoxyethyl]-6-[5-(1-methyl-1H-pyrazol-4-yl)-1H-pyrrolo[2,3-b]pyridin-3-yl]pyrimidin-2-ylamine]	470	36	–
CC(C)[C@@](O)(c1ccccc1)c1cc(-c2c[nH]c3ncc(-c4cnn(C)c4)cc23)nc(N)n1 (single isomer, unassigned) [A127]	11	28	–
CC(O)(c1ccccc1)c1cc(-c2c[nH]c3ncc(-c4cnn(C5CCNCC5)c4)cc23)nc(N)n1 (centres unmarked) [A13, 1-{2-amino-6-[5-(1-piperidin-4-yl-1H-pyrazol-4-yl)-1H-pyrrolo[2,3-b]pyridin-3-yl]pyrimidin-4-yl}-1-phenylethanol]	1200	530	–
COCO[C@](C)(c1ccncc1)c1cc(-c2c[nH]c3ncc(Br)cc23)nc(N)n1 (single isomer, unassigned) [A139]	7000	210	–
Cn1cc(-c2cnc3[nH]cc(-c4cc([C@@](O)(c5ccccc5)C(F)(F)F)nc(N)n4)c3c2)cn1 (single isomer, unassigned) [A123]	250	78	–
CCC[C@@](O)(c1ccncc1)c1cc(-c2c[nH]c3ncc(-c4cnn(C)c4)cc23)nc(N)n1 (single isomer, unassigned) [A134]	280	4.1	–
CC[C@](O)(c1ccncc1)c1cc(-c2c[nH]c3ncc(-c4cnn(CC(=O)N5CCCCC5)c4)cc23)nc(N)n1 (single isomer, unassigned) [A45]	348	8	–

Source: patent publication US8575163B2, “Pyrrolopyridinylpyrimidin-2-ylamine derivatives” (Merck Patent GmbH, priority 2009, dated 2013)
